From publication PMC7093416, “Selective USP7 inhibition elicits cancer cell killing through a p53-dependent mechanism” (Scientific Reports, 2020)
Several values for one entry are separate records, joined by “and”; a condition that tells them apart may be missing. Equal entries are not always repeated.

Tested on: panel of 484 cancer cell lines
Test: PRISM cancer cell line profiling, 5 days
Type: cell-based
Parameters: Viability: scale not given here; AUC: unit not given beside the values
Experimental: Cancer cell line profiling was performed using the Broad’s PRISM platform. Cell treatment and data analysis were performed as described in Yu et al[42]. Raw Luminex signal was converted to AUC values for each cell line as described. The resulting AUC profile for each compound was modeled against DepMap using the limma package in R[71]. Because hotspot mutation analysis was performed against DepMap, TP53 annotations in Fig. 6c,d are directly from DepMap.

[1] = 8MGBA_CENTRAL_NERVOUS_SYSTEM, pert_dose 6.10E-04
[2] = 253J_URINARY_TRACT, pert_dose 6.10E-04
[3] = 786O_KIDNEY, pert_dose 6.10E-04
[4] = 8305C_THYROID, pert_dose 6.10E-04
[5] = 8505C_THYROID, pert_dose 6.10E-04
[6] = A172_CENTRAL_NERVOUS_SYSTEM, pert_dose 6.10E-04
[7] = ACHN_KIDNEY, pert_dose 6.10E-04
[8] = AN3CA_ENDOMETRIUM, pert_dose 6.10E-04
[9] = ASPC1_PANCREAS, pert_dose 6.10E-04
[10] = BC3C_URINARY_TRACT, pert_dose 6.10E-04
[11] = BECKER_CENTRAL_NERVOUS_SYSTEM, pert_dose 6.10E-04
[12] = BFTC905_URINARY_TRACT, pert_dose 6.10E-04
[13] = BFTC909_KIDNEY, pert_dose 6.10E-04
[14] = BICR6_UPPER_AERODIGESTIVE_TRACT, pert_dose 6.10E-04
[15] = BICR16_UPPER_AERODIGESTIVE_TRACT, pert_dose 6.10E-04

Which results are given for COc1ccc(C2=N[C@@H](c3ccc(Cl)cc3)[C@@H](c3ccc(Cl)cc3)N2C(=O)N2CCNC(=O)C2)c(OC(C)C)c1 [Nutlin-3A]?
AUC (8MGBA_CENTRAL_NERVOUS_SYSTEM): 1.128; MFI 8MGBA_CENTRAL_NERVOUS_SYSTEM [1]: 9934 and 14986 and 8645 and 10478 and 11554; Viability [1]: 0.9428; AUC (22RV1_PROSTATE): 1.096; AUC (42MGBA_CENTRAL_NERVOUS_SYSTEM): 1.109; MFI 42MGBA_CENTRAL_NERVOUS_SYSTEM (42MGBA_CENTRAL_NERVOUS_SYSTEM, pert_dose 6.10E-04): 4116 and 5824 and 3462 and 5974.5 and 4899; AUC (253JBV_URINARY_TRACT): 0.9024; AUC (253J_URINARY_TRACT): 0.9134; MFI 253J_URINARY_TRACT [2]: 13400 and 14082 and 16791.5 and 16677.5 and 16246; Viability [2]: 0.9155; AUC (639V_URINARY_TRACT): 1.087; AUC (647V_URINARY_TRACT): 1.106; MFI 647V_URINARY_TRACT (647V_URINARY_TRACT, pert_dose 6.10E-04): 28744 and 33002 and 29259 and 22669.5 and 34567; AUC (769P_KIDNEY): 0.9079; AUC (786O_KIDNEY): 1.095; MFI 786O_KIDNEY [3]: 5233.5 and 8009.5 and 6751 and 6471 and 5976.5; Viability [3]: 0.8974; AUC (5637_URINARY_TRACT): 1.131; MFI 5637_URINARY_TRACT (5637_URINARY_TRACT, pert_dose 6.10E-04): 5164 and 5198 and 5608 and 5118 and 4250; AUC (8305C_THYROID): 1.086; MFI 8305C_THYROID [4]: 12807.5 and 11646.5 and 14452 and 19016 and 21699; Viability [4]: 0.9334; AUC (8505C_THYROID): 1.09; MFI 8505C_THYROID [5]: 8489.5 and 8271 and 7453 and 9513 and 9868; Viability [5]: 1.233; AUC (2313287_STOMACH): 1.164; AUC (A101D_SKIN): 0.8317; AUC (A172_CENTRAL_NERVOUS_SYSTEM): 0.8527; MFI A172_CENTRAL_NERVOUS_SYSTEM [6]: 9637 and 10480 and 8488 and 7646 and 8288; Viability [6]: 1.171; AUC (A204_SOFT_TISSUE): 0.961; MFI A204_SOFT_TISSUE (A204_SOFT_TISSUE, pert_dose 6.10E-04): 193.5 and 222 and 295.5 and 243.5 and 208; AUC (A375_SKIN): 0.8657; MFI A375_SKIN (A375_SKIN, pert_dose 6.10E-04): 6835.5 and 8654.5 and 5268 and 5613 and 4840.5; Viability (A375_SKIN, pert_dose 6.10E-04): 1.106; AUC (A549_LUNG): 0.859; MFI A549_LUNG (A549_LUNG, pert_dose 6.10E-04): 9119 and 8938 and 13071.5 and 13916 and 10911; Viability (A549_LUNG, pert_dose 6.10E-04): 1.178; AUC (A673_BONE): 1.118; AUC (A704_KIDNEY): 0.9164; AUC (A2058_SKIN): 1.115; MFI A2058_SKIN (A2058_SKIN, pert_dose 6.10E-04): 18135 and 19395 and 19549.5 and 22935 and 20108; Viability (A2058_SKIN, pert_dose 6.10E-04): 1.165; AUC (A2780_OVARY): 0.8149; MFI A2780_OVARY (A2780_OVARY, pert_dose 6.10E-04): 18911 and 15634 and 16575 and 14170.5 and 15163.5; AUC (ABC1_LUNG): 1.193; AUC (ACCMESO1_PLEURA): 1.068; AUC (ACHN_KIDNEY): 0.8632; MFI ACHN_KIDNEY [7]: 12459.5 and 11580 and 11974.5 and 13015.5 and 8174; Viability [7]: 1.255; AUC (AGS_STOMACH): 1.099; MFI AGS_STOMACH (AGS_STOMACH, pert_dose 6.10E-04): 33881 and 40936.5 and 34938 and 35658 and 38326; AUC (AN3CA_ENDOMETRIUM): 1.0825; MFI AN3CA_ENDOMETRIUM [8]: 6120 and 10572 and 7019 and 6758 and 9328; Viability [8]: 0.9599; AUC (ASPC1_PANCREAS): 1.065; MFI ASPC1_PANCREAS [9]: 18934.5 and 23594 and 20951.5 and 18601 and 21238; Viability [9]: 1.138; AUC (BC3C_URINARY_TRACT): 1.147; MFI BC3C_URINARY_TRACT [10]: 12791.5 and 13915 and 8459 and 10458.5 and 8646; Viability [10]: 1.328; AUC (BCPAP_THYROID): 1.122; AUC (BECKER_CENTRAL_NERVOUS_SYSTEM): 1.117; MFI BECKER_CENTRAL_NERVOUS_SYSTEM [11]: 24187 and 19210 and 17010 and 22220 and 21019.5; Viability [11]: 1.525; AUC (BEN_LUNG): 1.146; MFI BEN_LUNG (BEN_LUNG, pert_dose 6.10E-04): 7960 and 8798 and 6007 and 9178 and 9972.5; Viability (BEN_LUNG, pert_dose 6.10E-04): 1.0724; AUC (BFTC905_URINARY_TRACT): 1.2069; MFI BFTC905_URINARY_TRACT [12]: 6936 and 8493 and 9950.5 and 8885 and 6674.5; Viability [12]: 0.7676; AUC (BFTC909_KIDNEY): 1.167; MFI BFTC909_KIDNEY [13]: 11810 and 18038 and 14602 and 12914 and 16966; Viability [13]: 1.223; AUC (BHT101_THYROID): 1.133; AUC (BICR6_UPPER_AERODIGESTIVE_TRACT): 1.14; MFI BICR6_UPPER_AERODIGESTIVE_TRACT [14]: 13342 and 11342 and 11621 and 10074.5 and 14217; Viability [14]: 1.497; AUC (BICR16_UPPER_AERODIGESTIVE_TRACT): 1.202; MFI BICR16_UPPER_AERODIGESTIVE_TRACT [15]: 5443.5 and 5515 and 3801.5 and 7225 and 7467; Viability [15]: 1.266; AUC (BICR31_UPPER_AERODIGESTIVE_TRACT): 1.128; MFI BICR31_UPPER_AERODIGESTIVE_TRACT (BICR31_UPPER_AERODIGESTIVE_TRACT, pert_dose 6.10E-04): 17717 and 15090 and 19092 and 15830 and 14976; AUC (BICR56_UPPER_AERODIGESTIVE_TRACT): 1.158; AUC (BT474_BREAST): 1.172; AUC (BT549_BREAST): 1.133; AUC (BXPC3_PANCREAS): 1.49; AUC (CADOES1_BONE): 1.1262; Viability (CADOES1_BONE, pert_dose 6.10E-04): 1.326; AUC (CAKI1_KIDNEY): 0.8906; MFI CAKI1_KIDNEY (CAKI1_KIDNEY, pert_dose 6.10E-04): 21451 and 18142 and 20425 and 19719.5 and 25262.5
